Assay results from US20050112573A1, “Method of detecting toxic substance” (priority 2001, published 2005).

System: yeast genes (level of expressed mRNA)
Assay: DNA chip analysis of expressed mRNA of yeast genes after 2 h culture with a toxic chemical substance
Format: cell-based, Saccharomyces cerevisiae S288C
Settings: for The level of expressed mRNA in the presence of chemical substance/ (ratio to absence of chemical substance): stress protein genes, DNA chip
Outline: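 S. cerevisiae S288C in YPD at 25 °C was exposed at log phase for 2 h to a growth-inhibiting, non-lethal concentration of the chemical. Poly(A) mRNA was reverse-transcribed with Cy3- or Cy5-dUTP and hybridized to a whole-genome yeast DNA chip (65 °C, >12 h). Values are fluorescence ratios versus untreated cells.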

SMILES: CCCCC[C@H](O)CC(=O)CCc1ccc(O)c(OC)c1 [(13), gingerol]
- The level of expressed mRNA in the presence of chemical substance/absence: YOR267C (gene YOR267C): 1.4
- The level of expressed mRNA in the presence of chemical substance/absence: YOR325W (gene YOR325W): 0.6
- level of expressed mRNA in the presence of chemical substance/in its absence (gene YOR336W): 2.1
- level of expressed mRNA in the presence of chemical substance/in its absence (gene YOR344C): 1.8
- level of expressed mRNA in the presence of chemical substance/in its absence (gene YOR347C): 1.8
- The level of expressed mRNA in the presence of chemical substance/absence: YPL005W (gene YPL005W): 1.2
- level of expressed mRNA in the presence of chemical substance/in its absence (gene YPL017C): 1.9
- The level of expressed mRNA in the presence of chemical substance / the level in the absence of chemical substance, yeast gene YPL107W (gene YPL107W, DNA chip fluorescence ratio to control without chemical, 2 hours culture with chemical, growth-inhibiting non-lethal concentration): 0.8
- The level of expressed mRNA in the presence of chemical substance / the level in the absence of chemical substance, yeast gene YPL138C (gene YPL138C, DNA chip fluorescence ratio to control without chemical, 2 hours culture with chemical, growth-inhibiting non-lethal concentration): 0.6
- The level of expressed mRNA in the presence of chemical substance/absence: YPL150W (gene YPL150W): 2.1
- The level of expressed mRNA in the presence of chemical substance/absence: YPL151C (gene YPL151C): 1.4
- The level of expressed mRNA in the presence of chemical substance/absence: YPL152W (gene YPL152W): 1.4
- The level of expressed mRNA in the presence of chemical substance/absence: YPL168W (gene YPL168W): 1.0
- The level of expressed mRNA in the presence of chemical substance/absence: YPL180W (gene YPL180W): 1.5
- The level of expressed mRNA in the presence of chemical substance/absence: YPL188W (gene YPL188W): 0.9
- The level of expressed mRNA in the presence of chemical substance/absence: YPL221W (gene YPL221W): 1.0
- The level of expressed mRNA in the presence of chemical substance/absence: YPL225W (gene YPL225W): 0.8
- The level of expressed mRNA in the presence of chemical substance/absence: YPL249C (gene YPL249C): 1.8
- The level of expressed mRNA in the presence of chemical substance/absence: YPL260W (gene YPL260W): 1.4
- level of expressed mRNA in the presence of chemical substance/in its absence (gene YPL265W): 1.1
- level of expressed mRNA in the presence of chemical substance/in its absence (gene YPR006C): 1.8
- level of expressed mRNA in the presence of chemical substance/in its absence (gene YPR026W): 2.3
- The level of expressed mRNA in the presence of chemical substance/absence: YPR049C (gene YPR049C): 1.6
- The level of expressed mRNA in the presence of chemical substance/absence: YPR061C (gene YPR061C): 1.1
- The level of expressed mRNA in the presence of chemical substance/absence: YPR093C (gene YPR093C): 1.4
- The level of expressed mRNA in the presence of chemical substance/absence: YPR146C (gene YPR146C): 1.3
- The level of expressed mRNA in the presence of chemical substance/absence: YPR148C (gene YPR148C): 1.2
- The level of expressed mRNA in the presence of chemical substance/absence: YPR150W (gene YPR150W): 1.4
- The level of expressed mRNA in the presence of chemical substance/absence: YPR158W (gene YPR158W): 1.6
- The level of expressed mRNA in the presence of chemical substance/absence: YPR169W (gene YPR169W): 1.0
- The level of expressed mRNA in the presence of chemical substance/absence: YPR172W (gene YPR172W): 1.3
- The level of expressed mRNA in the presence of chemical substance/absence: YPR174C (gene YPR174C): 1.4
- The level of expressed mRNA in the presence of chemical substance/The level of expressed mRNA in the absence of chemical substance (yeast gene YAR010C): 1.4
- The level of expressed mRNA in the presence of chemical substance/The level of expressed mRNA in the absence of chemical substance (yeast gene YBL005W-A): 2.9
- The level of expressed mRNA in the presence of chemical substance/ (ratio to absence), gene YBL038W (yeast gene YBL038W, mitochondria-located protein genes, 2 h culture with chemical): 1.0
- The level of expressed mRNA in the presence of chemical substance/The level of expressed mRNA in the absence of chemical substance (yeast gene YBL041W): 2.6
- The level of expressed mRNA in the presence of chemical substance/The level of expressed mRNA in the absence of chemical substance (yeast gene YBL043W): 1.8
- The level of expressed mRNA in the presence of chemical substance/The level of expressed mRNA in the absence of chemical substance (yeast gene YBL078C): 5.0
- The level of expressed mRNA in the presence of chemical substance/ (ratio to absence of chemical substance) (yeast gene YBL093C): 2.1
- The level of expressed mRNA in the presence of chemical substance/ (in its absence), gene YBR036C (yeast gene YBR036C, ratio of DNA chip fluorescence intensity to that without chemical substance): 1.9
- The level of expressed mRNA in the presence of chemical substance/ (ratio to absence of chemical substance) (yeast gene YBR044C): 1.2
- The level of expressed mRNA in the presence of chemical substance/ (ratio to absence), gene YBR122C (yeast gene YBR122C, mitochondria-located protein genes, 2 h culture with chemical): 0.8
- The level of expressed mRNA in the presence of chemical substance/The level of expressed mRNA in the absence of chemical substance (yeast gene YBR214W): 2.1
- The level of expressed mRNA in the presence of chemical substance/ (ratio to absence), gene YBR251W (yeast gene YBR251W, mitochondria-located protein genes, 2 h culture with chemical): 1.0
- The level of expressed mRNA in the presence of chemical substance/ (in its absence), gene YBR298C (yeast gene YBR298C, ratio of DNA chip fluorescence intensity to that without chemical substance): 0.8
- The level of expressed mRNA in the presence of chemical substance/The level of expressed mRNA in the absence of chemical substance (yeast gene YCL020W): 3.0
- The level of expressed mRNA in the presence of chemical substance/The level of expressed mRNA in the absence of chemical substance (yeast gene YCL027W): 1.1
- The level of expressed mRNA in the presence of chemical substance/The level of expressed mRNA in the absence of chemical substance (yeast gene YCR004C): 1.3
- The level of expressed mRNA in the presence of chemical substance/ (ratio to absence), gene YCR046C (yeast gene YCR046C, mitochondria-located protein genes, 2 h culture with chemical): 1.5
- The level of expressed mRNA in the presence of chemical substance/The level of expressed mRNA in the absence of chemical substance (yeast gene YCR071C): 1.3
- The level of expressed mRNA in the presence of chemical substance/ (ratio to absence), gene YCR083W (yeast gene YCR083W, mitochondria-located protein genes, 2 h culture with chemical): 1.8
- The level of expressed mRNA in the presence of chemical substance/ (ratio to absence of chemical substance) (yeast gene YCR083W): 1.8
- The level of expressed mRNA in the presence of chemical substance/The level of expressed mRNA in the absence of chemical substance (yeast gene YCR088W): 1.9
- The level of expressed mRNA in the presence of chemical substance/The level of expressed mRNA in the absence of chemical substance (yeast gene YDL008W): 2.0
- The level of expressed mRNA in the presence of chemical substance/ in its absence, gene YDL067C (yeast gene YDL067C, energy system protein genes, 2 h culture with the chemical, ratio to control without chemical): 0.6
- The level of expressed mRNA in the presence of chemical substance/ (ratio to absence), gene YDL067C (yeast gene YDL067C, mitochondria-located protein genes, 2 h culture with chemical): 0.6
- The level of expressed mRNA in the presence of chemical substance/ in its absence, gene YDL078C (yeast gene YDL078C, energy system protein genes, 2 h culture with the chemical, ratio to control without chemical): 1.0
